Test results reported in patent publication US20190125896A1, “ANTI-INFECTIVE COMPOSITIONS COMPRISING PHYTOGLYCOGEN NANOPARTICLES” (MIREXUS BIOTECHNOLOGIES INC., priority 2016, published 2019).
Read-outs that look alike come from different tables or passages of the source.

Legend:
[1] = system: C. utilis ATCC9950; assay: Sensitization to antibiotics: MIC in medium supplemented with phytoglycogen; assay type: cell-based; conditions: Candida utilis
Method: (§1) MIC assays as defined in Example 15 were performed in sterile and untreated 96 well microtitre plates according to the broth micro-dilution technique described in either the Clinical and Laboratory Standards Institute document M07-A9: Methods for Dilution Antimicrobial Susceptibility Tests for Bacteria that Grow Aerobically; Approved Standard and document M27-A2 Reference Method for Broth Dilution Antifungal Susceptibility Testing of Yeasts; Approved Standard—Second Edition, with the exception that, where indicated, medium was additionally supplemented with native or cationized phytoglycogen. Assessments done using C. utilis ATCC9950, B. subtilis 168 and E. coli AB264 employed native or cationized phytoglycogen at concentrations ⅛, ¼, ½ their respective MIC values for cationized phytoglycogen. Assessments of the opportunistic pathogen P. aeruginosa PAO1 were made at final in-assay concentrations of 0.5, 1 or 10 mg native or cationized phytoglycogen.ml^−1. Experiments were performed as in-assay duplicates, and were repeated a minimum of three times (n=6).
(§2) MIC assays were performed in duplicate within each experiment and were repeated a minimum three times to confirm the data (n=6). MIC values with a four-fold or greater change relative to the non-supplemented medium MIC represent a statistically-significant change in MIC value. Only those antibiotic-cationized phytoglycogen combinations which caused a four-fold change relative to the non-supplemented medium MIC were deemed as indicative of resulting in potentiation (MIC value was less), or tolerance (MIC value increased).

[2] = system: Candida utilis ATCC9950; assay: MIC of amphotericin B-phytoglycogen conjugate, modified broth microdilution; assay type: cell-based; conditions: 35° C.
Method: The activity of the amphotericin B-phytoglycogen conjugate (PHG-AMB) was assayed against a yeast, Candida utilis ATCC9950, using a modified broth microdilution assay (CLSI M27-A2; Example 15). RPMI 1640 medium (Sigma-Aldrich; Canada), containing no sodium bicarbonate, supplemented with 0.165 M MOPS and adjusted to a pH of 7.0, was used for the assay. Stocks of 1600 μg AMB/ml DMSO were stored at −80° C. and diluted prior to use. 500 μg PHG-AMB.ml^−1 RPMI 1640 was prepared fresh on the day of assay. Briefly, doubling dilutions of 16 μg AMB.ml^−1 RPMI 1640 and 500 μg PHG-AMB.ml^−1 RPMI 1640 were prepared by serial two-fold dilution in RPMI 1640. Controls comprised AMB supplemented with phytoglycogen adjusted to mimic the changing concentration of PHG-AMB in the wells. Negative growth control wells contained sterile medium. Positive growth control wells contained medium or medium supplemented with phytoglycogen. […] Assays were performed as in duplicate replicate with a minimum of three independent replicates.

[3] = system: P. aeruginosa PAO1; assay: Sensitization to antibiotics: MIC in medium supplemented with phytoglycogen; assay type: cell-based, Pseudomonas aeruginosa; conditions: for ↓ Fold-change in MIC (cationized phytoglycogen) MIC.5 mg/ml: 0.5 mg cationized phytoglycogen · ml^−1 Mueller-Hinton Broth; for ↓ Fold-change in MIC (cationized phytoglycogen) MIC1 mg/ml: 1 mg cationized phytoglycogen · ml^−1 Mueller-Hinton Broth; for ↓ Fold-change in MIC (cationized phytoglycogen) MIC10 mg/ml: 10 mg cationized phytoglycogen · ml^−1 Mueller-Hinton Broth
Method: as §1, §2

[4] = system: E. coli AB264; assay: as above; assay type: cell-based; conditions: Escherichia coli; for fold-change reduction in MIC, CP0.125: cationized phytoglycogen at 0.125 of its MIC; for fold-change reduction in MIC, CP0.25: cationized phytoglycogen at 0.25 of its MIC; for fold-change reduction in MIC, CP0.5: cationized phytoglycogen at half-strength of its MIC
[5] = system: B. subtilis 168; assay: as above; assay type: cell-based; conditions: Bacillus subtilis; for fold-change reduction in MIC, CP0.125: cationized phytoglycogen at 0.125 of its MIC; for fold-change reduction in MIC, CP0.25: cationized phytoglycogen at 0.25 of its MIC; for fold-change reduction in MIC, CP0.5: cationized phytoglycogen at half-strength of its MIC
[6] = system: P. aeruginosa PAO1 biofilm; assay: Biofilm eradication: 20 h biofilms treated with antibiotic and cationized phytoglycogen; assay type: cell-based, Pseudomonas aeruginosa; conditions: 24 h, medium alone
Method: Biofilm growth and treatments were performed in sterile 96 well polystyrene plates. Sterile solutions of gamma-irradiated cationized phytoglycogen was prepared by reconstitution and dilution as required in sterile Mueller-Hinton broth. P. aeruginosa PAO1 stocks were revived by sub-culturing P. aeruginosa PAO1 (37° C., 150 rpm, 16-18 h) in Mueller-Hinton broth (Oxoid; Fisher Scientific, Canada). The inoculum was prepared immediately prior to use by diluting in sterile Mueller-Hinton broth to a final in-assay cell density of 5×10^5 CFU.ml^−1. 100 μl of this solution was transferred to wells and incubated (37° C., 150 rpm). Sterile broth was the negative growth control. At 20 h, plates were transferred to a biological safety cabinet, well contents were gently aspirated and the wells rinsed with sterile 0.9% (wt/vol) NaCl. […] Positive growth controls contained inoculated medium, non-supplemented or with 1 or 10 mg cationized phytoglycogen.ml^−1. Plates were incubated at 37° C. for a further 24 h, after which biofilms were quantitated as previously described. Experiments were done in quadruplicate replicate and repeated three times (n=12).

[7] = Pseudomonas aeruginosa, PAO1, P. aeruginosa, non-supplemented Mueller-Hinton Broth, read-out: MIC
[8] = P. aeruginosa, non-supplemented Mueller-Hinton Broth

Compound	↓ Fold-change in MIC (cationized phytoglycogen) MIC.5 mg/ml ([3]; P. aeruginosa)	↓ Fold-change in MIC (cationized phytoglycogen) MIC1 mg/ml ([3]; P. aeruginosa)	↓ Fold-change in MIC (cationized phytoglycogen) MIC10 mg/ml ([3]; P. aeruginosa)	MIC [3, 7] [µg/mL]	fold-change reduction in MIC, CP0.125 [4]	fold-change reduction in MIC, CP0.25 [4]	fold-change reduction in MIC, CP0.5 [4]	fold-change reduction in MIC, CP0.125 [5]	fold-change reduction in MIC, CP0.25 [5]	fold-change reduction in MIC, CP0.5 [5]	other results
C[C@@H]1[C@H](O)[C@@H](C)/C=C/C=C/C=C/C=C/C=C/C=C/C=C/[C@H](O[C@@H]2O[C@H](C)[C@@H](O)[C@H](N)[C@@H]2O)C[C@@H]2O[C@](O)(C[C@@H](O)C[C@@H](O)[C@H](O)CC[C@@H](O)C[C@@H](O)CC(=O)O[C@H]1C)C[C@H](O)[C@H]2C(=O)O [amphotericin B]											fold-change reduction in MIC, CP0.125 ([1]; cationized phytoglycogen at 0.125 of its MIC): 1-2 fold; fold-change reduction in MIC, CP0.25 ([1]; cationized phytoglycogen at 0.25 of its MIC): 1 fold; fold-change reduction in MIC, CP0.5 ([1]; cationized phytoglycogen at half-strength of its MIC): ↓4 fold; MIC ([2]; RPMI 1640, 48 h): 0.5 μg AMB.ml^−1; MIC ([2]; RPMI 1640 supplemented with phytoglycogen, 48 h): 0.5 μg AMB.ml^−1
CC1(C)S[C@@H]2[C@H](NC(=O)[C@H](N)c3ccccc3)C(=O)N2[C@H]1C(=O)O [ampicillin]	↓ 8 fold	↓ 8-16 fold	2 fold	1020	1-2 fold	1-2 fold	1-2 fold	1 fold	1 fold	2 fold	
CC1(C)S[C@@H]2[C@H](NC(=O)C(C(=O)O)c3ccccc3)C(=O)N2[C@H]1C(=O)O (stereo partly shown) [carbenicillin]	↓ 16-32 fold	↓ 32 fold	↓ 8-16 fold	64	1-2 fold	↓4-8 ^ fold	↓8-16^ fold	1 fold	2 fold	↓4-8 fold	
CC(C)(O/N=C(\C(=O)N[C@@H]1C(=O)N2C(C(=O)[O-])=C(C[n+]3ccccc3)CS[C@H]12)c1csc(N)n1)C(=O)O [ceftazidime]	↓ 8 fold	↓ 32-64 fold	↓ 4-8 fold	2							
O=C(N[C@H](CO)[C@H](O)c1ccc([N+](=O)[O-])cc1)C(Cl)Cl [chloramphenicol]	↓ 4 fold	↓ 8 fold	2 fold	64	1-2 fold	1-2 fold	1-2 fold	1 fold	↓2-4 fold		
O=C(O)c1cn(C2CC2)c2cc(N3CCNCC3)c(F)cc2c1=O [ciprofloxacin]											change in biofilm of 20 h biofilms ([6]; at the MIC): no change in biofilm; reduction of biofilm ([6]; four-fold the MIC): 73%; reduction of biofilm ([6]; two-fold the MIC): 64%
CC[C@H]1OC(=O)[C@H](C)[C@@H](O[C@H]2C[C@@](C)(OC)[C@@H](O)[C@H](C)O2)[C@H](C)[C@@H](O[C@@H]2O[C@H](C)C[C@H](N(C)C)[C@H]2O)[C@](C)(O)C[C@@H](C)C(=O)[C@H](C)[C@@H](O)[C@]1(C)O [erythromycin]	↓ 4 fold	↓ 8 fold	1-2 fold	128	1-2 fold	1-2 fold	1-2 fold	1-2 fold	↓2-4 fold	↓2-4 fold	
CCn1cc(C(=O)O)c(=O)c2ccc(C)nc21 [nalidixic acid]	↓ 4-32 fold	↓ 16-32 fold	↓ 8-16 fold	1020							
CO[C@@H]1[C@@H](OC(N)=O)[C@@H](O)[C@H](Oc2ccc3c(O)c(NC(=O)c4ccc(O)c(CC=C(C)C)c4)c(=O)oc3c2C)OC1(C)C [novobiocin]	↓ 4-16 fold	↓ 16-32 fold	↓ 4 fold	2050							
CC1(C)S[C@@H]2[C@H](NC(=O)Cc3ccccc3)C(=O)N2[C@H]1C(=O)O [penicillin G]	↓ 16-32 fold	↓64-128 fold	↓ 2-4 fold		1-2 fold	↓4-8 ^ fold	↓8 fold	1-2 fold	↓8-16 fold	↓16-32 fold	MIC [3, 8]: 12500 µg/mL
CN(C)[C@@H]1C(O)=C(C(N)=O)C(=O)[C@@]2(O)C(O)=C3C(=O)c4c(O)cccc4[C@@](C)(O)[C@H]3C[C@@H]12 [tetracycline]	↓ 8 fold	↓ 8 fold	2 fold	16 to 32							
CN[C@H](CC(C)C)C(=O)N[C@H]1C(=O)N[C@@H](CC(N)=O)C(=O)N[C@H]2C(=O)N[C@H]3C(=O)N[C@H](C(=O)N[C@H](C(=O)O)c4cc(O)cc(O)c4-c4cc3ccc4O)[C@H](O)c3ccc(c(Cl)c3)Oc3cc2cc(c3O[C@@H]2O[C@H](CO)[C@@H](O)[C@H](O)[C@H]2O[C@H]2C[C@](C)(N)[C@H](O)[C@H](C)O2)Oc2ccc(cc2Cl)[C@H]1O [vancomycin]	↓ 2-4 fold	↓ 16 fold	↓ 4 fold		1-2 fold	↓2-4 ^ fold	↓4-16^ fold	1 fold	1 fold	1-2 fold	MIC ([3]; Pseudomonas aeruginosa, PAO1, read-out: MIC (μg · ml^−1)): 1020 µg/mL
gentamicin	2 fold	2 fold	1 fold		1-2 fold	2 fold	↓4-8 ^ fold	1-2 fold	↓2-4 fold	↓4-8 fold	MIC [3, 8]: 0.5 µg/mL
polymyxin B [polymixin B]	1-2 fold	↓ 2-4 fold	2 fold								MIC [3, 8]: 0.125 to 0.25 µg/mL
